These results are taken from PubChem BioAssay (NCI).

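Five compound concentrations were applied to cells in 96-well plates for 48 hours; endpoints were derived by simple linear interpolation of the resulting dose-response curve. Here, GI50 denotes the concentration required for 50% inhibition of growth. TGI is the concentration that stops growth completely.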

Among the test systems are MCF7 breast; SK-MEL-2 melanoma; UACC-257 melanoma; OVCAR-5 ovarian; NCI-H23 lung; MOLT-4 leukemia; SK-MEL-5 melanoma; PC-3 prostate; SF-295 CNS; K-562 leukemia; SNB-75 CNS.
What all share (experiment): inhibition of tumour cell growth, NCI panel, 48 h

Take `Oc1ccc(-c2nc3ccc(Cl)cc3s2)cc1`: the TGI with MCF7 breast was 22.6 µM; in the experiment on SK-MEL-2 melanoma, 34 µM; with UACC-257 melanoma, 34.4 µM; in the experiment on OVCAR-5 ovarian it was 33 µM; in the experiment with NCI-H23 lung, 36.5 µM; in the experiment with MOLT-4 leukemia, above 100 µM. For the same molecule, the TGI in the experiment with SK-MEL-5 melanoma is 35.7 µM; in the experiment with PC-3 prostate, 37.5 µM; in the experiment with SF-295 CNS it was 34.1 µM; in the experiment with K-562 leukemia, above 100 µM.
As for `NC(=S)N/N=C\c1nccc2ccccc12`, the TGI is 11.9 µM with MCF7 breast; above 100 µM in the experiment on SK-MEL-2 melanoma; above 58.6 µM in the experiment with UACC-257 melanoma; above 100 µM in the experiment on OVCAR-5 ovarian; above 100 µM in the experiment on NCI-H23 lung; 0.827 µM in the experiment with MOLT-4 leukemia. Besides, the TGI is 3.7 µM in the experiment on SK-MEL-5 melanoma, above 100 µM in the experiment on PC-3 prostate, 0.781 µM with SF-295 CNS and above 50 µM in the experiment on K-562 leukemia. For the same molecule, in the experiment with OVCAR-5 ovarian, the GI50 is 0.469 µM.
As to `CC1=C(C)Cc2c(O)ccc(O)c2C1`, the TGI in the experiment with MCF7 breast is 51.3 µM; in the experiment with UACC-257 melanoma it was 32.2 µM; in the experiment on OVCAR-5 ovarian, 38.6 µM; in the experiment with NCI-H23 lung, above 100 µM; with MOLT-4 leukemia, 97.2 µM; in the experiment with SK-MEL-5 melanoma, 27.7 µM. The TGI in the experiment on PC-3 prostate is 32.1 µM; with SF-295 CNS it was above 100 µM; in the experiment with SNB-75 CNS it was 31.3 µM; in the experiment on K-562 leukemia, 49.8 µM.
With `COc1ccc(-c2cc3[nH]nc(N)c3c(=O)o2)cc1`, the TGI with SK-MEL-2 melanoma, in the experiment with UACC-257 melanoma, in the experiment on OVCAR-5 ovarian, in the experiment on NCI-H23 lung, in the experiment with MOLT-4 leukemia and in the experiment with SK-MEL-5 melanoma was above 100 µM each time. For the same molecule, the TGI with SF-295 CNS, in the experiment with SNB-75 CNS and in the experiment on K-562 leukemia was above 100 µM each time.
As for `CC(=O)C1CC[C@@H]2[C@H](CC[C@]3(C)[C@@H](O)CC[C@@H]23)[C@H]1C(=O)O` (stereo not given in full), the TGI with MCF7 breast, in the experiment on SK-MEL-2 melanoma, in the experiment with UACC-257 melanoma, in the experiment on OVCAR-5 ovarian, in the experiment with NCI-H23 lung and with MOLT-4 leukemia was above 100 µM each time. Further, the TGI with SK-MEL-5 melanoma, with PC-3 prostate, in the experiment on SF-295 CNS and in the experiment with K-562 leukemia was above 100 µM throughout.
For the molecule `N/C(=N\N=C\c1ccc2c(c1)OCCO2)NO`, the TGI with MCF7 breast is above 82.4 µM; in the experiment with SK-MEL-2 melanoma it was 70.4 µM; in the experiment with UACC-257 melanoma, above 61.2 µM; with OVCAR-5 ovarian it was above 40.8 µM; with NCI-H23 lung it was above 100 µM; in the experiment with MOLT-4 leukemia, above 100 µM. Also, the TGI in the experiment with SK-MEL-5 melanoma was 22.4 µM; in the experiment with SF-295 CNS it was 57.1 µM; in the experiment with SNB-75 CNS, above 100 µM; in the experiment on K-562 leukemia it was above 72.4 µM.
On to `O=C1C(Cl)=C(Nc2ccc(S(=O)(=O)Nc3ccccn3)cc2)C(=O)c2ccccc21`, for which the TGI in the experiment with MCF7 breast was 12.9 µM; in the experiment with SK-MEL-2 melanoma, 15.3 µM; with UACC-257 melanoma, 10.3 µM; in the experiment on OVCAR-5 ovarian, above 46.9 µM; with NCI-H23 lung, 25.2 µM; in the experiment on MOLT-4 leukemia, 25.5 µM. The TGI with SK-MEL-5 melanoma amounted to 11.4 µM; in the experiment on PC-3 prostate, 27 µM; in the experiment on SF-295 CNS, 35.2 µM; in the experiment with SNB-75 CNS it was 21.9 µM; in the experiment with K-562 leukemia, 16.5 µM.
Consider `CC1(C)OCC=CCO1`, for which the TGI in the experiment on MCF7 breast, in the experiment on SK-MEL-2 melanoma, in the experiment with UACC-257 melanoma, with OVCAR-5 ovarian, in the experiment with NCI-H23 lung and in the experiment with MOLT-4 leukemia was above 100 µM throughout. Moreover, the TGI with SK-MEL-5 melanoma, in the experiment with PC-3 prostate, with SF-295 CNS, in the experiment on SNB-75 CNS and in the experiment with K-562 leukemia was above 100 µM in each case.
`COc1cc(C(O)(CC#N)c2cc3c(cc2Br)OCO3)cc(OC)c1OC` (stereo not given): the TGI in the experiment on MCF7 breast, in the experiment on SK-MEL-2 melanoma, in the experiment on UACC-257 melanoma, with OVCAR-5 ovarian, with NCI-H23 lung and with MOLT-4 leukemia was above 100 µM in each case. In addition, the TGI in the experiment on PC-3 prostate, with SF-295 CNS, with SNB-75 CNS and in the experiment with K-562 leukemia was above 100 µM in each case.
`COc1cc2c(cc1OCCCC(=O)Nc1ccc3ccc4cccc5ccc1c3c45)N=C[C@@H]1CCCN1C2=O`: the TGI in the experiment with MCF7 breast is 0.297 µM; in the experiment on SK-MEL-2 melanoma it was below 0.01 µM; with UACC-257 melanoma, 0.104 µM; in the experiment on OVCAR-5 ovarian it was below 0.0506 µM; in the experiment with NCI-H23 lung, below 0.01 µM; with MOLT-4 leukemia, 0.355 µM. Moreover, the TGI in the experiment on PC-3 prostate was 6.69 µM; with SF-295 CNS, 1.08 µM; in the experiment with SNB-75 CNS, 1.12 µM; in the experiment with K-562 leukemia, 14.1 µM. For the same molecule, the GI50 was below 0.01 µM in the experiment with SK-MEL-2 melanoma; 0.0368 µM with UACC-257 melanoma; below 0.01 µM in the experiment with OVCAR-5 ovarian; below 0.01 µM in the experiment with NCI-H23 lung; 0.0987 µM with MOLT-4 leukemia; 0.222 µM with PC-3 prostate. Besides, the GI50 in the experiment on SF-295 CNS was 0.217 µM; in the experiment with K-562 leukemia, 0.19 µM.
